How the values were obtained:
[1] = target: human dopamine D2L receptor (Homo sapiens, UniProt P14416); experiment: Dopamine D2L radioligand binding ([3H]Spiperone); conditions: percent inhibition of specific binding, compound at 1 μM; for inhibition at 1 µM: read-out: Inhibition of ligand binding, Dopamine D2L; for Inhibition of ligand binding, Dopamine D2L: 1 µM
Excerpt: Non-specific binding was estimated in the presence of […] Haloperidol. Receptor proteins were filtered and washed, the filters were then counted to determine [^3H]Spiperone specifically bound. […] Biochemical assay results are presented as the percent inhibition of specific binding in Table 9.

[2] = target: T1, human recombinant histamine H2 receptor (Homo sapiens, UniProt P25021); experiment: Histamine H2 radioligand binding ([125I]Aminopotentidine); conditions: read-out: Histamine Binding (1 μM) H2, percent inhibition of specific binding, 1 μM
T1 construct: expressed in transfected cells; host or cells: Chinese hamster ovary (CHO) K1 cells
T1 sequence (P25021 whole entry): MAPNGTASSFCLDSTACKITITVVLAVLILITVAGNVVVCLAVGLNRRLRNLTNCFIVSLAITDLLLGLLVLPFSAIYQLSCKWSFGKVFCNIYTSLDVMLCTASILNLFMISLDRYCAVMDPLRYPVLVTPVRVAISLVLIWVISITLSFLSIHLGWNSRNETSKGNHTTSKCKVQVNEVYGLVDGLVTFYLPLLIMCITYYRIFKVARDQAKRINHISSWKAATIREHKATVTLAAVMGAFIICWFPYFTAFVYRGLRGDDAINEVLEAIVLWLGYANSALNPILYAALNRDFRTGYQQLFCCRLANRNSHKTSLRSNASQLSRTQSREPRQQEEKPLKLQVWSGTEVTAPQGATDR
Procedure, shortened: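 CHO-K1 cells expressing human recombinant H2 receptor, 50 mM phosphate buffer pH 7.4; compounds incubated with 0.1 nM [125I]aminopotentidine for 120 min at 25 °C. Nonspecific binding defined with 3 μM tiotidine; specifically bound radioligand counted after filtration and washing.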

[3] = target: T2, human recombinant adrenergic α1D receptor (Homo sapiens, UniProt P25100); experiment: Adrenergic α1D radioligand binding ([3H]Prozosin); conditions: percent inhibition of specific binding; compound at 1 μM; read-out: Inhibition of ligand binding, Adrenergic α1D
T2 construct: expressed in transfected cells; host or cells: human embryonic kidney (HEK-293) cells
T2 sequence (P25100 1-572): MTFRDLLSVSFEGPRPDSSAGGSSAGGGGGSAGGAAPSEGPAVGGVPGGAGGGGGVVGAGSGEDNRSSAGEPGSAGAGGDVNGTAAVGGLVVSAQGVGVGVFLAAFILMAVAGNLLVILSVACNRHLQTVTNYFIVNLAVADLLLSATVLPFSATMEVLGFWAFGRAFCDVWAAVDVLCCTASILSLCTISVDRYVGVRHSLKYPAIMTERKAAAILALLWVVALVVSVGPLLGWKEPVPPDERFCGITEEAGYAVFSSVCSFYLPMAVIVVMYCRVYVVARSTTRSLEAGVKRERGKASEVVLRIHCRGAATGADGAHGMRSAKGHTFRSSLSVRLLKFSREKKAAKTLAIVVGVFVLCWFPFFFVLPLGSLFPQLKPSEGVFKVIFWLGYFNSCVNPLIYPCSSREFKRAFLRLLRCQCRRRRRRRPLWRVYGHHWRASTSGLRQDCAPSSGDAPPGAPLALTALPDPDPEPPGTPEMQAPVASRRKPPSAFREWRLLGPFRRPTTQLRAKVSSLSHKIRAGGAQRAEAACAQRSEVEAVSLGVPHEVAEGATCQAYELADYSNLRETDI
Procedure: Compounds of invention were incubated with 0.6 nM [^3H]Prozosin for 60 min. at 25° C. Non-specific binding was estimated in the presence of 10 μM phentolamine. Receptor proteins were filtered and washed, the filters were then counted to determine [^3H]Prozosin specifically bound. Compounds were screened at 1 μM or lower, using 1% DMSO as vehicle. Biochemical assay results are presented as the percent inhibition of specific binding in Table 9.

[4] = target: T3, human recombinant serotonin (5-Hydroxytryptamine) 5-HT6 receptor (Homo sapiens, UniProt P50406); experiment: Serotonin 5-HT6 radioligand binding ([3H]LSD); conditions: compound at 1 μM; read-out: Inhibition of ligand binding, Serotonin 5-HT6 (percent inhibition of specific binding)
T3 construct: expressed in transfected cells; host or cells: human HeLa cells
T3 sequence (P50406 whole entry): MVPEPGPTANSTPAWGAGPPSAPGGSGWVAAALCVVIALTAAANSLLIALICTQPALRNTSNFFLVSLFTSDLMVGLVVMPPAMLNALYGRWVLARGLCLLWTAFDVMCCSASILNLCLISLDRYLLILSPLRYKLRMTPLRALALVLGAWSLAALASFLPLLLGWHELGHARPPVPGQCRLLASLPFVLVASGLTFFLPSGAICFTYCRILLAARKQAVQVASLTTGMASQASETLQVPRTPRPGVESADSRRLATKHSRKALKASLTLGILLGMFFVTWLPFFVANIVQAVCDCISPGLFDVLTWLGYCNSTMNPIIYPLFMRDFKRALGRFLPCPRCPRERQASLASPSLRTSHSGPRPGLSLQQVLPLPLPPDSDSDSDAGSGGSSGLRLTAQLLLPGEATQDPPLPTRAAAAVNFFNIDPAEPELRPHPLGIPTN
Procedure: Compounds of the invention were incubated with 1.5 nM [3H]Lysergic acid diethylamide (LSD) for 120 min. at 37° C. […] Receptor proteins were filtered and washed, the filters were then counted to determine [3H]LSD specifically bound. Compounds were screened at 1 μM or lower, using 1% DMSO as vehicle. Biochemical assay results are presented as the percent inhibition of specific binding in Table 10.

[5] = target: T4, human recombinant adrenergic α2B receptor (Homo sapiens, UniProt P18089); experiment: Adrenergic α2B radioligand binding ([3H]Rauwolscine); conditions: percent inhibition of specific binding; compound at 1 μM; read-out: Inhibition of ligand binding, Adrenergic α2B
T4 construct: expressed in transfected cells; host or cells: Chinese hamster ovary (CHO-K1) cells
T4 sequence (P18089 1-450): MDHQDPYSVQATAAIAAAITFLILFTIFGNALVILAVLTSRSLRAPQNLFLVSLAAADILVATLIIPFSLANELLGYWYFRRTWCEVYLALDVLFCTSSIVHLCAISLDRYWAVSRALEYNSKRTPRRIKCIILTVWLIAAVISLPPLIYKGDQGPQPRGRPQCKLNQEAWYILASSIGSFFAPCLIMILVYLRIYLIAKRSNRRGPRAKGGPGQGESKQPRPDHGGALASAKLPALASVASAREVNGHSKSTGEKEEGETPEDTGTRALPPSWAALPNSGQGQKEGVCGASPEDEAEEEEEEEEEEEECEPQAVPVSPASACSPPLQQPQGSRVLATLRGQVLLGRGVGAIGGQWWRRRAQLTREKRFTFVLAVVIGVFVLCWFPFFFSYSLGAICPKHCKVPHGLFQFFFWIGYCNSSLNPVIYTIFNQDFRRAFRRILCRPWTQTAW
Procedure: To evaluate in radioligand binding assays the activity of compounds of the invention, human recombinant adrenergic α2B receptor expressed in Chinese hamster ovary (CHO-K1) cells (Uhlen S et al. Eur J Pharmacol. 343(1):93, 1998) in a modified Tris-HCl buffer (50 mM Tris-HCl, pH 7.4, 12.5 mM MgCl2, 1 mM EDTA, 0.2% BSA) was used. Compounds of the invention were incubated with 2.5 nM [^3H]Rauwolscine for 60 min. at 25° C. Non-specific binding was estimated in the presence of 10 μM Prozosin. Receptor proteins were filtered and washed, the filters were then counted to determine [^3H]Rauwolscine specifically bound. Compounds were screened at 1 μM or lower, using 1% DMSO as vehicle. Biochemical assay results are presented as the percent inhibition of specific binding in Table 9.

[6] = target: T5, human recombinant serotonin (5-Hydroxytryptamine) 5-HT2A receptor (Homo sapiens, UniProt P28223); experiment: Serotonin 5-HT2A radioligand binding ([3H]Ketanserin); conditions: read-out: Inhibition of ligand binding, Serotonin 5-HT2A (percent inhibition of specific binding), compound at 1 μM
T5 construct: expressed in transfected cells; host or cells: Chinese hamster ovary (CHO-K1) cells
T5 sequence (P28223 whole entry): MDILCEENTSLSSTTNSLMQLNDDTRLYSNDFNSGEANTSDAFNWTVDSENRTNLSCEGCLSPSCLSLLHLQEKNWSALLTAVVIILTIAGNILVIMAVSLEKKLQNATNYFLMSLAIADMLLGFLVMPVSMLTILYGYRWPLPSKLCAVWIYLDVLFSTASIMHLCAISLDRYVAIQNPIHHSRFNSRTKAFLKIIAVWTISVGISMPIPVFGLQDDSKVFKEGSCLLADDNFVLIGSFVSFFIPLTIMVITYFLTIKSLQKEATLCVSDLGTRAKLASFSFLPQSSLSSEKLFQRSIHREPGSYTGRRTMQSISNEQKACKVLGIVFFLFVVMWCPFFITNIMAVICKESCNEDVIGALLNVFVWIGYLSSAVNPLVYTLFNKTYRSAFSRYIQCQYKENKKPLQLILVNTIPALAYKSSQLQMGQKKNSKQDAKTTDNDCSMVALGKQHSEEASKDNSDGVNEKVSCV
Procedure: Compounds of the invention were incubated with 0.5 nM [^3H]Ketanserin for 60 min. at 25° C. Non-specific binding was estimated in the presence of 1 μM Mianserin. Receptor proteins were filtered and washed, the filters were then counted to determine [^3H]Ketanserin specifically bound.

Sequence of human dopamine D2L receptor (P14416 whole entry): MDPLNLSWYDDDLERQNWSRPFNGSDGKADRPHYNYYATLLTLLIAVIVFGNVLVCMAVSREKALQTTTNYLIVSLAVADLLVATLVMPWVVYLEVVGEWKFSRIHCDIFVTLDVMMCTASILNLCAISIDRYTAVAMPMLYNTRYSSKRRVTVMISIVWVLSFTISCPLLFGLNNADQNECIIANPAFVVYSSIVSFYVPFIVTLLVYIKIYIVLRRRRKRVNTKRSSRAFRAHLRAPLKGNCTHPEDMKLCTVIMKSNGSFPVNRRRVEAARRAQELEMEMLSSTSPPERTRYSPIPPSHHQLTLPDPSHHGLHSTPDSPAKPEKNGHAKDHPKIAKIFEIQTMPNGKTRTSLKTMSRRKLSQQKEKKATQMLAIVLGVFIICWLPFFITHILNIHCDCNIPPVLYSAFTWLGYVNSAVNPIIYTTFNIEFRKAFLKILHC

| Structure (SMILES) | inhibition at 1 µM [1] [%] | inhibition at 1 µM [2] [%] | inhibition at 1 µM [3] [%] | inhibition at 1 µM [4] [%] | inhibition at 1 µM [5] [%] | inhibition at 1 µM [6] [%] | Inhibition of ligand binding, Dopamine D2L [1] [%] |
| --- | --- | --- | --- | --- | --- | --- | --- |
| CN1CCc2c(c3cc(Cl)ccc3n2CC(C)(O)c2ccncc2)C1 (centres unmarked) [Compound 63, 1-(8-chloro-1,2,3,4-tetrahydro-2-methylpyrido[4,3-b]indol-5-yl)-2-(pyridin-4-yl)propan-2-ol] | 17 | 53 | 84 | 73 | 101 | 95 |  |
| C/C(=C\n1c2c(c3cc(Cl)ccc31)CN(C)CC2)c1ccc(C)nc1 [Compound 89, (E)-8-chloro-2,3,4,5-tetrahydro-2-methyl-5-(2-(6-methylpyridin-3-yl)prop-1-enyl)-1H-pyrido[4,3-b]indole] | 68 | 91 | 87 | 67 | 108 | 101 |  |
| COc1ccc(/C(C)=C/n2c3c(c4cc(Cl)ccc42)CN(C)CC3)cc1 [Compound 92, (E)-8-chloro-2,3,4,5-tetrahydro-5-(2-(4-methoxyphenyl)prop-1-enyl)-2-methyl-1H-pyrido[4,3-b]indole] | 83 | 99 | 99 | 97 | 103 | 100 | 97 |
| COc1ccc(/C(C)=C/n2c3c(c4cc(Cl)ccc42)CN(C)CC3)cc1F [Compound 93, (E)-8-chloro-5-(2-(3-fluoro-4-methoxyphenyl)prop-1-enyl)-2,3,4,5-tetrahydro-2-methyl-1H-pyrido[4,3-b]indole] | 85 | 100 | 96 | 93 | 108 | 100 | 97 |
| Cc1ccc(/C=C/Cn2c3c(c4cc(Cl)ccc42)CN(C)CC3)cn1 [Compound 125, 8-chloro-2,3,4,5-tetrahydro-2-methyl-5-((E)-3-(6-methylpyridin-3-yl)allyl)-1H-pyrido[4,3-b]indole] | 20 | 48 | 51 | 62 | 110 | 97 |  |
| CN1CCc2c(c3cc(Cl)ccc3n2C/C=C/c2ccc(F)cc2)C1 [Compound 126, 5-(4-fluorocinnamyl)-8-chloro-2,3,4,5-tetrahydro-2-methyl-1H-pyrido[4,3-b]indole] | 84 | 85 | 50 | 95 | 116 | 102 |  |
| CN1CCc2c(c3cc(Cl)ccc3n2C/C=C/c2ccncc2)C1 [Compound 127, 8-chloro-2,3,4,5-tetrahydro-2-methyl-5-((E)-3-(pyridin-4-yl)allyl)-1H-pyrido[4,3-b]indole] | 10 | 22 | 46 | 41 | 68 | 84 |  |
| C=C(Cn1c2c(c3cc(Cl)ccc31)CN(C)CC2)c1cccnc1 [Compound 133, 8-chloro-2,3,4,5-tetrahydro-2-methyl-5-(2-(pyridin-3-yl)allyl)-1H-pyrido[4,3-b]indole] | 29 | 60 | 55 | 80 | 103 | 96 |  |
| C=C(Cn1c2c(c3cc(Cl)ccc31)CN(C)CC2)c1ccc(C)nc1 [Compound 136, 8-chloro-2,3,4,5-tetrahydro-2-methyl-5-(2-(6-methylpyridin-3-yl)allyl)-1H-pyrido[4,3-b]indole] | 54 | 85 | 70 | 73 | 90 | 100 |  |

From US8906925B2, “Pyrido[4,3-B]indoles containing rigid moieties” (Medivation Technologies, Inc., priority 2008, dated 2014)
